Series [1] has as its system solid support-bound internucleosidic phosphite triesters. The series is described as follows: Sulfur transfer in solid phase synthesis of oligonucleotide phosphorothioates, HPLC and ES MS. The settings on record: for contact time required for complete sulfur transfer: optimized conditions.

In general, melting point refers to the temperature, or range, at which the solid turns liquid.

With “5-Phenyl-3H-1,2,4-dithiazol-3-thione [Compound 7]”, the entries for the “contact time required for complete sulfur transfer” value in series [1] (0.02 M solution of reagent), in series [1] (0.05 M solution of reagent) and in series [1] (0.1 M solution of reagent) were 2 min, 1 min and 0.5 min, respectively. Besides, in series [1] (in words), the “performance in oligonucleotide synthesis compared with compound 1” value is “substantially similar performance”.

The molecule `S=c1ncss1` [Compound 6, 3H-1,2,4-dithiazol-3-thione] returned a melting point of 73 to 75 °C.
